Experimental data: patent US20230173029A1, “TREATMENT OF CARDIAC REMODELLING” (UNIVERSITETET I OSLO, priority 2020, published 2023)

What was measured:
Type in all cases: in vivo, rat
[1] = system: Dahl salt-sensitive (Dahl/SS) male rats; experiment: Histochemistry of left ventricle collagen deposition (Masson's trichrome) and collagen cross-linking (Picrosirius Red); conditions: HT Dahl/SS rats, 50 or 100 ng/kg/day s.c. (pooled), not significant, FIG. 2
Protocol: (§1) A total of 29 adult Dahl salt-sensitive (Dahl/SS) male rats with an initial weight of 150 to 200 g were included in the study. Rats were purchased from Charles River Laboratories (USA) and housed in a room with a 12/12-hour light cycle, a temperature of 21° C., and a humidity of 55%. Rats were maintained on a normal salt diet up to seven weeks of age. Twenty-two Dahl/SS were then randomly switched to a high salt diet for 6 weeks to induce hypertension, whilst 7 rats were kept normotensive (NT) on normal salt diet. Drinking water and food was provided ad libitum.
After 2 weeks of high salt diet, 15 hypertensive (HT) rats were started on treatment with proANP31-67. […]
Hearts were excised, rinsed in PBS, quickly blotted on gauze, and then fixed in 10% formalin for a minimum of 24 hr. […] Stained sections were scanned (20× magnification) with AxioScan Z1 (Carl Zeiss), to obtain whole cross-sections for collagen quantification. Total fibrosis area (%) and perivascular fibrosis (ratio of the area of fibrosis surrounding the vessel wall to the lumen area) were quantified using ZEN2 blue edition (Zeiss, Jena, Germany). […] The degree of cross-linked collagen was calculated as the ratio between cross-linked collagen and total collagen. All histological quantifications were independently performed by three trained researchers blinded to rat groups.

[2] = system: Dahl salt-sensitive (Dahl/SS) male rats; experiment: Tail-cuff blood pressure measurement in hypertensive Dahl/SS rats; conditions: for DBP (diastolic blood pressure) / MAP (mean arterial pressure) / SBP (systolic blood pressure): HT Dahl/SS rats on high salt diet, at 6 weeks, mean ± SEM
Protocol: as §1
(§2) After 2 weeks of high salt diet, 15 hypertensive (HT) rats were started on treatment with proANP31-67. Rats treated with proANP31-67 received one of two dosages: 50 ng/kg/day (n=8) or 100 ng/kg/day (n=7). A total of 14 rats received only vehicle: control rats on a normal salt diet (n=7); and HT rats on a high salt diet (n=7). Rats were randomly assigned to the 3 groups (i.e. control normal salt; high salt untreated; high salt plus treatment).
(§3) Drug or vehicle was delivered via Alzet osmotic mini-pumps (Model 2004; mean pumping rate […], mean fill volume […]) implanted subcutaneously (as instructed by the manufacturer) for 28 days. Animals were treated with buprenorphine (0.05 mg/kg s.c.) as analgesic 30 minutes before and up to 1 day following implantation of pumps.
Measurement was carried out using the CODA non-invasive blood pressure acquisition system for rats (Kent Scientific Corporation). Animals were kept in restraint tubes and placed over a heating platform (preheated to 33 to 35° C.) and blood pressure measured by a tail-cuff system. Each recording session consisted of 25 acclimation cycles (not used in the analysis), followed by 20 inflation and deflation cycles (the occlusion cuff is inflated to 250 mm Hg and deflated over 20 s). Rats were trained for at least 5 consecutive days before blood pressure measurements were recorded.
(§4) Experiments were performed as described above in Example 1, using a group of 8 Dahl/SS rats which, at 7 weeks of age, were switched to a high salt diet as described above. After 2 weeks of high salt diet, this group was started on proANP31-67 treatment. The rats were administered proANP31-67 at a renal sub-therapeutic dosage of 25 ng/kg/day.

[3] = system: Dahl salt-sensitive (Dahl/SS) male rats; experiment: Renal function and structure in hypertensive Dahl/SS rats (data not shown); conditions: HT Dahl/SS rats
[4] = system: left ventricular cardiomyocytes; experiment: Cardiomyocyte isolation and t-tubule structure (di-8-ANEPPS confocal imaging); conditions: HT Dahl/SS rats, 50 or 100 ng/kg/day s.c. (pooled)
Protocol: as §1, §2, §3
A subset of rats was used for analyses of t-tubule structure in isolated left ventricular cardiomyocytes. These animals were anaesthetised as described above and euthanised by removal of the heart. […]
Cardiomyocytes were then isolated as previously described (Frisk et al., American Journal of Physiology—Heart and Circulatory 307: H609-620, 2014). […] Fluorescence was excited at 488 nm and emitted light above 500 nm was measured. t-tubule captures were recorded with 1871×1871-pixel XY images, recorded as z-stacks (spatial resolution: 77×77×500 nm). […] Cell area, t-tubule density and distance to nearest t-tubule or sarcolemmal membrane were analysed as previously described (Frisk et al., Cardiovascular Research 112: 445-451, 2016).

[5] = system: Dahl salt-sensitive (Dahl/SS) male rats; experiment: Autopsy: body weight, heart weight and heart weight to body weight ratio in hypertensive Dahl/SS rats; conditions: for HW (heart weight) / HW/BW: HT Dahl/SS rats on high salt diet, at 6 weeks, mean ± SEM
Protocol: as §1, §2, §3, §4

[6] = 50 or 100 ng/kg/day s.c. (pooled) for 28 days

Question: With “proANP31-67: Human proANP31-67, linear peptide fragment of proANP consisting of SEQ ID NO: 1; also known as vessel dilator, VSDL (EVVPPQVLSEPNEEAGAALSPLPEVPPWTGEVSPAQR; listed as Homo sapiens)” as the substance, how does the “increase of interstitial LV fibrosis compared to NT rats” value [1] read?
Answer: 14%

Question: And the “increase of perivascular LV fibrosis compared to NT rats” value [1]?
Answer: 35%

Question: What about the “DBP (diastolic blood pressure)” value ([2]; 25 ng/kg/day s.c.) of the same substance?
Answer: 120.1 ± 4.7 mmHg

Question: And the “MAP (mean arterial pressure)” value ([2]; 25 ng/kg/day s.c.)?
Answer: 138.6 ± 4.1 mmHg

Question: What about the “SBP (systolic blood pressure)” value ([2]; 25 ng/kg/day s.c.) of the same substance?
Answer: 176.5 ± 3.4 mmHg

Question: What about the “DBP (diastolic blood pressure)” value [2, 6] of the same substance?
Answer: 128.2 ± 2.3 mmHg

Question: And the “MAP (mean arterial pressure)” value [2, 6]?
Answer: 144.9 ± 2.3 mmHg

Question: What about the “SBP (systolic blood pressure)” value [2, 6] of the same substance?
Answer: 179.3 ± 2.4 mmHg

Question: What about the “effect on systolic blood pressure” value ([2]; HT Dahl/SS rats, 25 ng/kg/day s.c., FIG. 5A) of the same substance?
Answer: no effect

Question: And the “effect on elevated systolic blood pressure” value ([2]; HT Dahl/SS rats, 50 or 100 ng/kg/day s.c. (pooled), FIG. 1A)?
Answer: not lowered

Question: And the “protective effects on renal function” value ([3]; 25 ng/kg/day s.c.)?
Answer: not to display the protective effects on renal function

Question: And the “effects on renal function and structure” value ([3]; 50 or 100 ng/kg/day s.c., data not shown)?
Answer: protective effects on renal function and structure

Question: And the cardiomyocyte size ([4]; FIG. 3B)?
Answer: preserved

Question: What about the t-tubule density ([4]; FIG. 3C) of the same substance?
Answer: normal

Question: What about the “increase of maximal intracellular distance from each point in the cytosol to the nearest t-tubule or surface membrane” value ([4]; FIG. 3D) of the same substance?
Answer: prevented

Question: What about the “HW (heart weight)” value ([5]; 25 ng/kg/day s.c.) of the same substance?
Answer: 1304 ± 41.4 mg

Question: What about the HW/BW ([5]; 25 ng/kg/day s.c.) of the same substance?
Answer: 3.68 ± 0.07

Question: And the “HW (heart weight)” value [5, 6]?
Answer: 1365 ± 30.1 mg

Question: What about the HW/BW [5, 6] of the same substance?
Answer: 3.97 ± 0.1 mg/g

Question: What about the “increase in HW/BW relative to NT rats” value ([5]; HT Dahl/SS rats, 25 ng/kg/day s.c., FIG. 5B) of the same substance?
Answer: no increase

Question: What about the “percentage increase in heart weight/body weight compared to NT” value ([5]; HT Dahl/SS rats, 50 or 100 ng/kg/day s.c. (pooled), FIG. 1B) of the same substance?
Answer: less than 5%
